Data: patent publication US8883773B2, “Cephem compound having pseudo-catechol group” (Shionogi & Co., Ltd., priority 2010, dated 2014)
Converted amounts (≈) assume the structure as drawn. Where two headings read alike, the source gives them in different places.

Key:
Type in all cases: cell-based
[1] = system: Pseudomonas aeruginosa SR24; experiment: in vitro antimicrobial activity, MIC by agar plate incubation (Japan Society for Chemotherapy method); conditions: no enzyme, Ceftazidime sensitive strain, 1000 cfu/spot, sensitive disc medium, read-out: Minimum Inhibitory Concentration (MIC)
Protocol: (§1) Compound (I) of the subject invention has been investigated for in vitro antimicrobial activity thereof.
(§2) (Microbe/Strain Species Nos. 1-4):
(§3) Measurement of Minimum Inhibitory Concentration (MIC: microgram/ml) was conducted according to the standard method of the Japan Society for Chemotherapy, and the amount of bacteria for inoculation was 1000 cfu/spot, and sensitive disc medium was used as the test medium, and conducted using agar plate incubation.
(§4) In the tables, the unit of the values of inhibitory activity is microgram/ml (μg/ml)

[2] = system: Acinetobacter baumannii SR24396; experiment: as above; conditions: 1000 cfu/spot, sensitive disc medium, read-out: Minimum Inhibitory Concentration (MIC)
Protocol: as §1, §2, §3, §4

[3] = system: Pseudomonas aeruginosa SR27060; experiment: as above; conditions: IMP-1, MBL producing strain (carbapenem resistant strain), 1000 cfu/spot, sensitive disc medium, read-out: Minimum Inhibitory Concentration (MIC)
Protocol: as §1, §2, §3, §4

[4] = system: Klebsiella pneumoniae ATCC 700603; experiment: as above; conditions: ATCC700603, SHV-18, ESBL producing strain, 1000 cfu/spot, sensitive disc medium, read-out: Minimum Inhibitory Concentration (MIC)
Protocol: as §1, §2, §3, §4

[5] = system: Stenotrohomonas maltophilia SR21970; experiment: in vitro antimicrobial activity, MIC by agar plate incubation (CLSI method, Mueller-Hinton agar); conditions: L-1, MBL producing strain (carbapenem resistant strain), 10000 cfu/spot, read-out: Minimum Inhibitory Concentration (MIC)
Protocol: as §1
(Microbe/Strain Species Nos. 5):
Measurement of Minimum Inhibitory Concentration (MIC, microgram/ml) was conducted according to the CLSI (Clinical and Laboratory Standards Institute) and the amount of bacteria for inoculation was 10000 cfu/spot, and Mueller-Hinton agar medium was used as the test medium, and conducted using agar plate incubation.
as §4

[6] = SR24396, Acinetobacter baumannii SR24395 (Table 10)

| MIC [1] [µg/mL] | MIC [2, 6] [µg/mL] | MIC [3] [µg/mL] | MIC [4] [µg/mL] | MIC [5] [µg/mL] | MIC ([2]; Acinetobacter baumannii SR24396 (Table 11)) [µg/mL] | SMILES |
| --- | --- | --- | --- | --- | --- | --- |
| 0.063 | 0.5 | 0.25 | 0.25 | 1 | – | CC(C)(O/N=C(\C(=O)N[C@@H]1C(=O)N2C(C(=O)[O-])=C(C[N+]3(CCNC(=O)c4cc(=O)c(O)c[nH]4)CCCC3)CS[C@H]12)c1csc(N)n1)C(=O)[O][Na] [Compound I-4] |
| 0.063 (≈ 0.0857 µM) | 0.25 (≈ 0.34 µM) | 0.25 (≈ 0.34 µM) | 0.25 (≈ 0.34 µM) | 1 (≈ 1.36 µM) | – | CC(C)(O/N=C(\C(=O)N[C@@H]1C(=O)N2C(C(=O)O)=C(C[N+]3(CCNC(=O)c4cc(=O)c(O)cn4O)CCCC3)CS[C@H]12)c1csc(N)n1)C(=O)[O-] [Compound I-6] |
| 0.25 (≈ 0.329 µM) | – | 1 (≈ 1.31 µM) | 0.5 (≈ 0.657 µM) | 1 (≈ 1.31 µM) | 0.25 (≈ 0.329 µM) | Nc1nc(/C(=N/O[C@@H](CC(=O)O)C(=O)[O-])C(=O)N[C@@H]2C(=O)N3C(C(=O)O)=C(C[N+]45CCC[C@H]4CN(C(=O)c4cc(=O)c(O)c[nH]4)CC5)CS[C@H]23)cs1 (stereo partly shown) [Compound I-11] |

| SMILES | MIC [1] [µg/mL] | MIC [2, 6] [µg/mL] | MIC [3] [µg/mL] | MIC [4] [µg/mL] | MIC [5] [µg/mL] | MIC ([2]; Acinetobacter baumannii SR24396 (Table 11)) [µg/mL] |
| --- | --- | --- | --- | --- | --- | --- |
| CC(C)(O/N=C(\C(=O)N[C@@H]1C(=O)N2C(C(=O)O)=C(C[N+]34CCC(CNC(=O)c5cc(=O)c(O)c[nH]5)(CC3)CC4)CS[C@H]12)c1csc(N)n1)C(=O)[O-] [Compound I-2] | 0.125 (≈ 0.168 µM) | 1 (≈ 1.34 µM) | 1 (≈ 1.34 µM) | 1 (≈ 1.34 µM) | – | – |
